{
  "source": "paper PMC6700801",
  "about": "“Caffeic acid phenethyl ester suppresses androgen receptor signaling and stability via inhibition of phosphorylation on Ser81 and Ser213” (Cell Communication and Signaling : CCS, 2019)",
  "target": "T1, Androgen receptor (AR) (Rattus norvegicus, UniProt P15207)",
  "T1 sequence (P15207 646-902 limits assumed)": "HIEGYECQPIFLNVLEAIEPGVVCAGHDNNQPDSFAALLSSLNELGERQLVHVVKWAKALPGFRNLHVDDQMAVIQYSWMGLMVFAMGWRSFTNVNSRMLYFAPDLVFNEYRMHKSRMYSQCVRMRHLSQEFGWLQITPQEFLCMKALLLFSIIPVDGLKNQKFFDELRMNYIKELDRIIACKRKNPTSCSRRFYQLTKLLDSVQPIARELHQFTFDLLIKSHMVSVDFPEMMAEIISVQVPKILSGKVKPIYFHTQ",
  "experiment": "fluorescence polarization competition assay (PolarScreen AR Competitor Assay kit); very weak",
  "type": "binding",
  "data": [
    {"smiles": "O=C(/C=C/c1ccc(O)c(O)c1)OCCc1ccccc1", "note": "[Caffeic acid phenethyl ester]", "values": [
      {"measurement": "IC50", "result": 132, "unit": "µM"}
    ]}
  ]
}
